We go through 6 compounds from publication PMC2781006 (Virology Journal, 2009).

In one series the test system is Hendra virus. The experiment in a line: microbe, parasite or virus in culture. Type of series: cell-based. Conditions: read-out: HeV IC50.
Series [1] concerns human parainfluenza virus type 3 (HPIV3). The series is described as follows: microbe, parasite or virus in culture. It is filed as cell-based. To be noted: read-out: HPIV3 IC50.
Another series deals with IL-8. It is filed as cell-based, African Green Monkey.
In series [2] the test system is Influenza A/swine/Rachaburi/2000 (H1N1). The series is described as follows: microbe, parasite or virus in culture. Type of series: cell-based, Influenza A virus.
A further series concerns VSV (pVSV). The series is described as follows: microbe, parasite or virus in culture. Type of series: cell-based, vesicular stomatitis virus. Conditions: read-out: pVSV IC50.
The test system of series [3] is Nipah virus. The series is described as follows: microbe, parasite or virus in culture. Type of series: cell-based. To be noted: read-out: NiV IC50.
Series [4] can be described thus: in vitro. Conditions: human.
Series [5] concerns pseudotyped Hendra (pHeV). The series is described as follows: microbe, parasite or virus in culture. Type of series: cell-based, Hendra virus. Conditions: read-out: pHeV IC50.
The subject of the next series is pseudotyped Nipah (pNiV). The series is described as follows: microbe, parasite or virus in culture. Type of series: cell-based, Nipah virus. Conditions: read-out: pNiV IC50.
A further series deals with influenza A (H1N1) virus. Conditions: cited from earlier work.
For series [6], the system named is Nipah virus. The series is described as follows: microbe, parasite or virus in culture. It is filed as cell-based. Conditions: Henipavirus nipahense.
Series [7] in a line: in vitro. To be noted: African green monkey.
In another series the test system is TNF-α. Type of series: cell-based, African Green Monkey.
A further series deals with Henipavirus. Conditions: cited from earlier work.
Series [8] concerns Nipah virus. To be noted: hamster, in vivo; cited from earlier work.
The mark [9] stands for this setting: Human respirovirus 3, HEK-293T, 24 h.
[10] abbreviates: Vesicular stomatitis virus, HEK-293T, 48 h.
Setting [11] is: Henipavirus nipahense, HEK-293T, 48 h.
Where [12] appears, read: 1 h, read-out: NiV IC50, co-infection (Co).
Setting [13] is: 1 h, read-out: NiV IC50, post-infection (Post).
Where [14] appears, read: 1 h, read-out: NiV IC50, pre-infection (Pre).
The mark [15] stands for this setting: read-out: NiV IC50, cell pre-incubation (Cells).

pIC50: −log10 of the molar value. Read-outs that look alike come from different tables or passages of the source.

For the compound `CN(C)c1ccc(C(=C2C=CC(=[N+](C)C)C=C2)c2ccc(N(C)C)cc2)cc1` [Gentian Violet, gentian violet], the pIC50 is 5.57 with Hendra virus (Henipavirus hendraense, Vero); 6.07 in [1] (setting [9]); 6.57 in the series with VSV (pVSV) (setting [10]); 6.28 with Nipah virus [3] (Henipavirus nipahense, Vero); 9.52 in series [5] (Hendra virus, HEK-293T, 48 h); 7.21 in the series with pseudotyped Nipah (pNiV) (setting [11]). Moreover, the negative-log IC50 (pIC50) in the series with Nipah virus [6] (setting [12]) was 5.30; in the series on Nipah virus [6] (setting [13]) it was 5.40; in the series with Nipah virus [6] (setting [14]), 5.13; in the series with Nipah virus [6] (setting [15]), 6.23. Further, the “IL-8 expression, fold change” value in the series with IL-8 was “two fold”. Moreover, the “Influenza IC50” value in [2] is reported as “DNC^a”. In series [2], the “inhibition of influenza (H1N1) virus, in words” value (“inhibition of influenza” below) is reported as “did not observe clear inhibition”. The results for the CC50 in “in vitro [4]” and in “in vitro [7]” were 2.83 µM and 5.87 µM, respectively. Further, the “residual viable count of influenza virus, 30 min” value in the series with influenza A (H1N1) virus is “below three logs”. The “residual viable count of influenza virus, 60 min” value with influenza A (H1N1) virus is reported as “below five logs”.

`CN1C(=O)[C@]23CC4=CC=C[C@H](O)[C@H]4N2C(=O)[C@@]1(CO)SS3` [Gliotoxin, gliotoxin]: the pIC50 in the series with Hendra virus (Henipavirus hendraense, Vero) was 6.24; in [1] (setting [9]), 6.28; in series [2] (Influenza A virus, H1N1, Vero, in Sus scrofa, 24 h, read-out: Influenza IC50) it was 4.86; in the series on VSV (pVSV) (setting [10]) it was 6.63; with Nipah virus [3] (Henipavirus nipahense, Vero), 6.83; in [5] (Hendra virus, HEK-293T, 48 h), 6.44. Further, the pIC50 in the series with pseudotyped Nipah (pNiV) (setting [11]) was 7.00; in the series on Nipah virus [6] (setting [12]) it was 6.33; with Nipah virus [6] (setting [13]), 6.21; in the series with Nipah virus [6] (setting [14]), 5.93; with Nipah virus [6] (setting [15]), 6.31. In the series on TNF-α, the “TNF-α expression, fold change” value is “suppressed”. Besides, in the series on IL-8, the “IL-8 expression, fold change” value is listed as “two fold”. For the same compound, the “inhibition of influenza” value in series [2] is recorded as “dose-dependant inhibition”. Further, the CC50 in “in vitro [4]” amounted to 1.61 µM; in “in vitro [7]” it was 4.9 µM.

On to `NC(=O)c1ncn([C@@H]2O[C@H](CO)[C@@H](O)[C@H]2O)n1` [Ribavirin, ribavirin], for which the pIC50 was 5.65 with Hendra virus (Henipavirus hendraense, Vero) and 5.41 with Nipah virus [3] (Henipavirus nipahense, Vero). This compound displayed a CC50 in the series “in vitro [7]” of 150 µM.

On to `CCN(CC)CCCC(C)Nc1ccnc2cc(Cl)ccc12` (centres unmarked) [chloroquine], for which the “anti Henipavirus effects in vivo” value in the series on Henipavirus was “no anti Henipavirus effects”.

As to brilliant green, the pIC50 in the series on Hendra virus was 6.11; in series [1], 6.61; in the series with VSV (pVSV), 7.82; in the series on Nipah virus [3], 6.66; in series [5] it was 7.47; in the series with pseudotyped Nipah (pNiV), 7.38. Moreover, in the series with TNF-α, the “TNF-α expression, fold change” value came to 15 fold. The “IL-8 expression, fold change” value in the series with IL-8 came to 20 fold. Also, in [2], the “Influenza IC50” value is given as “DNC^a”. For the same compound, the “inhibition of influenza” value in [2] is on record as “did not observe antiviral efficacy”. The CC50 came to 4.67 µM with Vero cells and 0.861 µM in the series on 293T cells.

In the case of poly(I)-poly(C12U), the prevention of mortality result in the series on Nipah virus [8] is listed as “five of six animals”.
